Laboratory results taken from US9108957B2 (MITSUBISHI TANABE PHARMA CORPORATION, priority 2009, dated 2015).
Structures can show the parent of a compound that is named as a salt.

Molecular target: human recombinant TPK1 (Homo sapiens, UniProt P49841)
Experiment: Inhibitory activity against P-GS1 phosphorylation by TPK1 (Kinase Glo luminescence)
Type: biochemical
Conditions: 7.5 μM P-GS1, 10 μM ATP, 25° C. for 16 hours, Kinase Glo Reagent luminescent signal
Description: Inhibitory Activity of the Medicament of the Present Invention Against P-GS1 Phosphorylation by Bovine Cerebral TPK1
A mixture containing 100 mM HEPES-sodium hydroxide (pH 7.2), 1 mM magnesium acetate, 1 mM EGTA, 1 mM dithiothreitol (DTT), 0.02% Tween 20, 7.5 μM P-GS1, 10 μM ATP, human recombinant TPK1 and a compound shown in Table (a final mixture contained 1% DMSO deriving from a solution of a test compound prepared in the presence of 10% DMSO) was used as a reaction system. The phosphorylation was started by adding ATP, and the reaction was conducted at 25° C. for 16 hours. Then equal volume of Kinase Glo Reagent (Promega) was added to the mixture and luminescent signal from the mixture was measured. IC50 for each compound was calculated by setting the data of mixture without enzyme as 0% activity and that without compound as 100% activity.

human recombinant TPK1, sequence (P49841 whole entry): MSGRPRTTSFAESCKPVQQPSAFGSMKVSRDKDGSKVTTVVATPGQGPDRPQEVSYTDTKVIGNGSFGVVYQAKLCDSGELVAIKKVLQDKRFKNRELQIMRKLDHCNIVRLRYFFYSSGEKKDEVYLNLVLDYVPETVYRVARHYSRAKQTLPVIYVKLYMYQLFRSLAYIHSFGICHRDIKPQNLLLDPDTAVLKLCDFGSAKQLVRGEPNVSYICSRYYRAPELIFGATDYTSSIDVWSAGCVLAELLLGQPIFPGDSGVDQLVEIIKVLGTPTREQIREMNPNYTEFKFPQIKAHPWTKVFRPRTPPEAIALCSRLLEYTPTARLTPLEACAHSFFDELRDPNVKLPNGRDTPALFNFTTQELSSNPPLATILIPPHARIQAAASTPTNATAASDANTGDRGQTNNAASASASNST

| SMILES | IC50 [nM] |
| --- | --- |
| Cn1c(N2CCCO[C@@H](c3ccc(Br)cc3)C2)nc(-c2ccncc2F)cc1=O [Compound A010, (S)-2-[2-(4-bromophenyl)-1,4-oxazepan-4-yl]-6-(3-fluoropyridin-4-yl)-3-methylpyrimidin-4(3H)-one] | 5.5 |
| Cn1c(N2CCCO[C@@H](c3ccc(F)cc3)C2)nc(-c2ccncc2F)cc1=O [Compound A011, (S)-2-[2-(4-fluorophenyl)-1,4-oxazepan-4-yl]-6-(3-fluoropyridin-4-yl)-3-methylpyrimidin-4(3H)-one] | 6 |
| Cn1c(N2CCCO[C@@H](c3cccc(C(N)=O)c3)C2)nc(-c2ccncc2F)cc1=O [Compound A012] | 6.7 |
| Cn1c(N2CCCO[C@@H](c3ccc(C#N)cc3)C2)nc(-c2ccncc2F)cc1=O [Compound A013, (S)-2-[2-(4-cyanophenyl)-1,4-oxazepan-4-yl]-6-(3-fluoropyridin-4-yl)-3-methylpyrimidin-4(3H)-one] | 7.3 |
| Cn1c(N2CCOC(c3ccccc3F)CC2)nc(-c2ccncc2F)cc1=O (stereo not shown) [Compound A014, 2-[7-(2-fluorophenyl)-1,4-oxazepan-4-yl]-6-(3-fluoropyridin-4-yl)-3-methylpyrimidin-4(3H)-one] | 8.15 |
| Cn1c(N2CCCO[C@@H](c3cccc(C(N)=O)c3)C2)nc(-c2ccncn2)cc1=O [Compound A015, (S)-2-[2-(3-aminocarbonylphenyl)-1,4-oxazepan-4-yl]-3-methyl-6-(pyrimidin-4-yl)pyrimidin-4(3H)-one] | 9.3 |
| Cc1nc(-c2cccc([C@H]3CN(c4nc(-c5ccncc5F)cc(=O)n4C)CCCO3)c2)no1 [Compound A016, (S)-2-[2-[3-(5-methyl-1,2,4-oxadiazol-3-yl)-phenyl]-1,4-oxazepan-4-yl]-6-(3-fluoropyridin-4-yl)-3-methylpyrimidin-4(3H)-one] | 10.3 |
| Cn1c(N2CCCO[C@@H](c3ccc(C(N)=O)cc3)C2)nc(-c2ccncc2)cc1=O [Compound A017, (S)-2-[2-(4-aminocarbonylphenyl)-1,4-oxazepan-4-yl]-3-methyl-6-(pyridin-4-yl)pyrimidin-4(3H)-one] | 11 |
| Cn1c(N2CCCO[C@@H](c3ccc(C(N)=O)cc3)C2)nc(-c2ccncn2)cc1=O [Compound A018] | 11 |
| Cc1noc(-c2ccc([C@H]3CN(c4nc(-c5ccncc5F)cc(=O)n4C)CCCO3)cc2)n1 [Compound A019, (S)-2-[2-[4-(3-methyl-1,2,4-oxadiazol-5-yl)-phenyl]-1,4-oxazepan-4-yl]-6-(3-fluoropyridin-4-yl)-3-methylpyrimidin-4(3H)-one] | 11.1 |
| Cn1c(N2CCCO[C@@H](c3cccc(C#N)c3)C2)nc(-c2ccncc2F)cc1=O [Compound A020] | 11.4 |
| Cn1c(N2CCCO[C@@H](c3ccc(Br)cc3)C2)nc(-c2ccncc2)cc1=O [Compound A021, (S)-2-[2-(4-bromophenyl)-1,4-oxazepan-4-yl]-3-methyl-6-(pyridin-4-yl)pyrimidin-4(3H)-one] | 12 |
| Cn1c(N2CCCO[C@@H](c3ccc(F)cc3)C2)nc(-c2ccncc2)cc1=O [Compound A022, (S)-2-[2-(4-fluorophenyl)-1,4-oxazepan-4-yl]-3-methyl-6-(pyridin-4-yl)pyrimidin-4(3H)-one] | 12.5 |
| Cn1c(N2CCCO[C@H](c3cccc(Br)c3)C2)nc(-c2ccncc2)cc1=O [Compound A023, (R)-2-[2-(3-bromophenyl)-1,4-oxazepan-4-yl]-3-methyl-6-(pyridin-4-yl)pyrimidin-4(3H)-one] | 12.7 |
| Cn1c(N2CCCO[C@@H](c3cccc(Br)c3)C2)nc(-c2ccncc2)cc1=O [Compound A024, (S)-2-[2-(3-bromophenyl)-1,4-oxazepan-4-yl]-3-methyl-6-(pyridin-4-yl)pyrimidin-4(3H)-one] | 13 |
| Cn1c(N2CCCO[C@H](c3cccc(Br)c3)C2)nc(-c2ccncc2F)cc1=O [Compound A025, (R)-2-[2-(3-bromophenyl)-1,4-oxazepan-4-yl]-6-(3-fluoropyridin-4-yl)-3-methylpyrimidin-4(3H)-one] | 13.7 |
| Cn1c(N2CCCOC(c3ccccc3)C2)nc(-c2ccncn2)cc1=O (stereo not shown) [Compound A026, 2-(2-phenyl-1,4-oxazepan-4-yl)-3-methyl-6-(pyrimidin-4-yl)pyrimidin-4(3H)-one] | 14.6 |
| Cc1nc(-c2ccc([C@H]3CN(c4nc(-c5ccncc5F)cc(=O)n4C)CCCO3)cc2)no1 [Compound A027, (S)-2-[2-[4-(5-methyl-1,2,4-oxadiazol-3-yl)-phenyl]-1,4-oxazepan-4-yl]-6-(3-fluoropyridin-4-yl)-3-methylpyrimidin-4(3H)-one] | 15.4 |
| Cn1c(N2CCCO[C@@H](c3ccc(C#N)cc3)C2)nc(-c2ccncn2)cc1=O [Compound A028, (S)-2-[2-(4-cyanophenyl)-1,4-oxazepan-4-yl]-3-methyl-6-(pyrimidin-4-yl)pyrimidin-4(3H)-one] | 17.6 |
| Cn1c(N2CCCO[C@H](c3cccc(C(N)=O)c3)C2)nc(-c2ccncc2F)cc1=O [Compound A029] | 18.8 |
| Cc1nc(-c2cccc([C@H]3CN(c4nc(-c5ccncn5)cc(=O)n4C)CCCO3)c2)no1 [Compound A030, (S)-2-[2-[3-(5-methyl-1,2,4-oxadiazol-3-yl)-phenyl]-1,4-oxazepan-4-yl]-3-methyl-6-(pyrimidin-4-yl)pyrimidin-4(3H)-one] | 19.8 |
| Cc1noc(-c2ccc([C@H]3CN(c4nc(-c5ccncn5)cc(=O)n4C)CCCO3)cc2)n1 [Compound A031, (S)-2-[2-[4-(3-methyl-1,2,4-oxadiazol-5-yl)-phenyl]-1,4-oxazepan-4-yl]-3-methyl-6-(pyrimidin-4-yl)pyrimidin-4(3H)-one] | 20.2 |
| Cc1noc(-c2cccc([C@H]3CN(c4nc(-c5ccncc5F)cc(=O)n4C)CCCO3)c2)n1 [Compound A032, (S)-2-[2-[3-(3-methyl-1,2,4-oxadiazol-5-yl)-phenyl]-1,4-oxazepan-4-yl]-6-(3-fluoropyridin-4-yl)-3-methylpyrimidin-4(3H)-one] | 21.6 |
| Cn1c(N2CCCO[C@@H](c3cccc(C(N)=O)c3)C2)nc(-c2ccncc2)cc1=O [Compound A033, (S)-2-[2-(3-aminocarbonylphenyl)-1,4-oxazepan-4-yl]-3-methyl-6-(pyridin-4-yl)pyrimidin-4(3H)-one] | 23.4 |
| Cn1c(N2CCCOC(c3ccc(F)cc3)C2)nc(-c2ccncc2)cc1=O (stereo not shown) [Compound A035, 2-[2-(4-fluorophenyl)-1,4-oxazepan-4-yl]-3-methyl-6-(pyridin-4-yl)pyrimidin-4(3H)-one hydrochloride] | 27 |
| Cc1noc(-c2ccc([C@H]3CN(c4nc(-c5ccncc5)cc(=O)n4C)CCCO3)cc2)n1 [Compound A036, (S)-2-[2-[4-(3-methyl-1,2,4-oxadiazol-5-yl)-phenyl]-1,4-oxazepan-4-yl]-3-methyl-6-(pyridin-4-yl)pyrimidin-4(3H)-one] | 28.7 |
| Cn1c(N2CCCO[C@@H](c3ccc(C#N)cc3)C2)nc(-c2ccncc2)cc1=O [Compound A037, (S)-2-(2-(4-cyanophenyl)-1,4-oxazepan-4-yl)-3-methyl-6-(pyridin-4-yl)pyrimidin-4(3H)-one] | 30.8 |
| Cn1c(N2CCCO[C@H](c3ccc(C(N)=O)cc3)C2)nc(-c2ccncc2F)cc1=O [Compound A038, (R)-2-[2-(4-aminocarbonylphenyl)-1,4-oxazepan-4-yl]-6-(3-fluoropyridin-4-yl)-3-methylpyrimidin-4(3H)-one] | 30.9 |
